Source: a melting point compilation (Tetko et al.; mined from patent text by program, amines drawn as free bases though some values may be those of a salt)

| SMILES | melting point [°C] |
| --- | --- |
| Cc1ccc(S(=O)(=O)N2[C@@H](CCl)CC[C@H]2c2ccc(F)cc2)cc1 (racemic) | 130 |
| COc1ccc(S(=O)(=O)N(Cc2ccccc2)c2c(C(=O)O)cnc3c2cnn3-c2ccccc2)cc1 | 108 to 110 |
| COc1ccccc1C1(O)c2cc(NC(=O)CC(C)(C)C)c(C)c(C)c2OC1(C)C (stereo not given) | 168 to 169 |
| COc1ccc(Cl)c2nc(SCc3ccccc3)nn12 | 90 to 91 |
| CCOC(=O)CCCOc1ccc(C(=O)Nc2ccccc2Sc2ccccc2-c2nnn[nH]2)cc1 | 173 to 175 |
| COc1cc2c(cc1OC)[C@@H]1CN(C)CC[C@@H]1N=C2c1ccc(NC(=O)C(C)(C)C)cc1 (relative stereo) | 245 |
| NS(=O)(=O)c1cc(C(=O)O)cc(NCc2ccco2)c1-c1ccccc1 | 167 to 169 |
| CC(C)[C@@H]1O[C@](C#CC2CC2)(C(F)(F)F)c2cc(Cl)ccc2NC1=O (relative stereo) | 167 |
| CC(COc1ccc(C(=O)O)c(O)c1)C[Si](C)(O[Si](C)(C)C)O[Si](C)(C)C (stereo not given) | 117 to 118 |
| O=S(=O)(NCCC(F)=C(F)F)c1ccc(C(F)(F)F)cc1 | 68 to 70 |
| CN(C)c1ccc(C2(c3ccc(N(C)C)cc3)NNC(=O)c3cc(N(C)C)ccc32)cc1 | 265 to 270 |
| Cc1cc(OC(F)(F)C(Cl)Cl)c([N+](=O)[O-])cc1S(=O)(=O)C=CC#N | 109 |
| Nc1nc(N)c2c(ccc3c2cc(Cl)n3Cc2ccccc2)n1 | 285 to 286 |
| CCn1c(=O)c2[nH]c(/C=C/c3cccc(OC)c3OC)nc2n(CC)c1=O | 288 to 289 |
| c1cc2c3c(cccc3c1)C(NOCCCn1ccnc1)=N2 | 102 to 104 |
| COC(=O)c1ccc(Cc2cccc3ccc(C=O)cc23)c(OC)c1 | 103 to 104 |
| CC1CCC(=O)N1c1cc(-c2ccnc(Nc3cccc(Cl)c3)n2)ccn1 (stereo not given) | 162 to 164 |
| CC(Oc1ccccc1Cl)c1nnc(N)s1 (stereo not given) | 160 to 164 |
| COC(=O)Cc1nc(-c2ccc(Cl)cc2)oc1Oc1cccc([N+](=O)[O-])c1 | 97 to 99 |
| O=[N+]([O-])c1cccc(-c2nc(-c3ccccc3)cc3cccnc23)c1 | 172 to 175 |
| CC(=O)OC1(C(=O)COC(=O)CC(C)C)CCC2C3CC(C)C4=CC(=O)C=CC4(C)C3C(O)CC21C (stereo not given) | 126 to 130 |
| CNS(=O)(=O)Cc1ccc(NN=CCCC#N)cc1 | 124 to 125 |
| Cc1c(C)c2c(c(C)c1NC=O)CC(C)(C)O2 | 177 to 179 |
| O=S(=O)(c1ccc(Cl)cc1)C(CCO)c1cc(F)ccc1F (stereo not given) | 147 to 149 |

| SMILES | melting point [°C] |
| --- | --- |
| Nc1c(-c2ccc(OC(F)(F)F)cc2)nnn1-c1ccc(C(F)(F)F)cc1F | 134 to 135 |
| O=C1NC(=O)c2c1c(-c1ccccc1)cc1c2c2cc(O)ccc2n1CC(O)CO (stereo not given) | 290 to 295 |
| Cc1cc(CCCOc2ccc(-c3noc(C(F)(F)F)n3)cc2C)on1 | 69 to 70 |
| C#Cc1ccnc(-c2cc(N)c(Br)cc2[N+](=O)[O-])c1 | 226 to 228 |
| CCCCCCCCCCCCCCCCCCNC(=O)SCC(COCc1ccccc1)OC (stereo not given) | 40 to 41 |
| O=C1[C@@H]2Cc3ccccc3CN2C(=O)N1c1cc(Cl)cc(Cl)c1 | 243 |
| CCC(=O)NCC=C1CCc2ccc3nn(C)cc3c21 | 185 to 187 |
| N#CCCNC(=O)c1n[nH]cc1NC(=O)c1cc(Cl)ccn1 | 261 to 263 |
| Cn1nc(NC(=O)Cc2ccccc2)c(-c2ccncc2)c1-c1ccc(F)cc1 | 158 to 160 |
| N#Cc1c(Cl)c2cccnc2n(Cc2ccccc2)c1=O | 188 |
| COc1ccc(-c2nnc(C(C)C)n2-c2ccc(OC)cc2)cc1 | 162 |
| NCCc1c[nH]c2cc3c(cc12)C(=O)NCC3 | 82 to 86 |
| CCc1ccc(OCC(=O)N(Cc2nc(-c3cccnc3)no2)C(C)C)cc1 | 87.9 to 89.4 |
| CCOc1ccc(Nc2cc(C)nc3cn[nH]c23)cc1 | 217 |
| Cc1cc(C)nc(-n2ccnc2S(=O)Cc2ccccc2NC=O)c1 (stereo not given) | 160 to 162 |
| CCCC1Sc2c(cc(OC)c(Cl)c2Cl)C1O (stereo not given) | 119 to 120 |
| O=C(OCCOCCOCCO)C(=O)c1ccc(OCCOc2ccc3ccccc3c2)cc1 | 70 to 71 |
| CCn1ncc2c(NCc3ccc(C#N)cc3)c3ccccc3nc21 | 233 to 234 |
| CCOC(=O)c1ncn(-c2ccn(C)n2)c1N | 168 to 170 |
| N#Cc1cc(CCNc2ncnc3c(F)ccc(F)c23)ccc1Oc1cc(C(F)(F)F)ccn1 | 157 to 159 |
| Cc1nc2ccc3c(c2o1)OC(CNC1CCC(c2c[nH]c4ccc(F)cc24)C1)CO3 (stereo not given) | 79 to 82 |
| CNC(=O)c1ccc(NC(=O)Oc2ccccc2)cc1 | 190 to 192 |
| CCCCc1nc2c(N)nc3cccnc3c2n1CC(C)C | 115 to 116 |
| CC(c1ccc2ncccc2c1)n1nnc2ccc(-c3ccc(C(N)=O)c(Cl)c3)nc21 (stereo not given) | 140 to 143 |

| SMILES | melting point [°C] |
| --- | --- |
| Cn1nc(NC2c3cc(C#N)ccc3OC(C)(C)C2O)ccc1=O (stereo not given) | 117 to 119 |
| COC(=O)NCC(=CF)c1ccccc1 | 73 to 74 |
| N#Cc1ccccc1Sc1ccc(Cl)cc1 | 82 |
| O=[N+]([O-])c1ccc(CCN2CCN(c3nsc4ccccc34)CC2)cc1 | 99 |
| COC(=O)c1cc2c(N3CCNCC3)cccc2[nH]1 | 177 to 180 |
| CN(C)CCOC(=O)c1cc2cccc(O)c2[nH]1 | 149 to 152 |
| O=C(O)c1cn(C2COC2)c2c(Cl)c(F)c(F)cc2c1=O | > 300 |
| CC(=O)C=Cc1ccc(CCNS(=O)(=O)c2ccc(Cl)cc2)cc1 | 111 to 113 |
| O=C1OCc2c(c3cc(-c4ccc(OC(F)(F)F)cc4)ccc3n2Cc2ccccc2)C1=O | 239 to 240 |
| CC(C)c1c(I)sc2ncc(C#N)c(Cl)c12 | 177 to 179 |
| O=C(Nc1cccnc1)N1CCN(c2nccc(-c3ccc(F)c(F)c3)n2)CC1 | 231 to 232 |
| CN1C(=O)C2(COc3cc4c(cc32)OCCO4)c2c(C(=O)Oc3ccccc3)cccc21 (stereo not given) | 184 to 186 |
| CN(C)S(=O)(=O)c1cccc2cccc(O)c12 | 95 |
| CC(C)c1c(Sc2ccccc2)n(CC2=CCC(CO)C2)c(=O)[nH]c1=O (stereo not given) | 166 to 168 |
| CN(C)C=Nc1nc(CN2CCN(C(c3ccccc3)c3ccccc3)CC2)cs1 | 148 to 150 |
| COC(=O)c1ccccc1-c1nc(COc2ccc(COc3nn(-c4ccccc4)cc3C=O)cc2OC)c(C)o1 | 134 to 135 |
| CC(C)(C)OC(=O)N=C(NC(=O)OC(C)(C)C)N1CCC(n2ccc3ccccc32)CC1 | 115 to 118 |
| OC(Cn1ccnc1)C12CC3CC(CC(C3)C1)C2 (stereo not given) | 226 to 228 |
| CC(=O)NCC1CC1c1cccn2nc(C)nc12 (stereo not given) | 116 to 118 |
| CCOC(=O)c1nc2cc(Br)ccc2c(O)c1C(=O)OCC | 234 |
| Cn1ncc(/C=C/C(=O)Nc2ccc(CCc3cscn3)cc2)c1-c1ccc(F)cc1 | 211 to 212 |
| CCOCc1nc2c(N)nc3cc(N4CCOC4=O)cnc3c2n1CC(C)C | 174 to 176 |
